# In ChEMBL document CHEMBL1201862, “PubChem BioAssay data set” (2004):
#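 These data come from cells grown in 96-well plates and exposed to compound for 48 hours at five concentrations. The concentration for 50% growth inhibition is given as GI50.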 Active and inactive are the calls of the source. Rule as the data show it: active = GI50 up to about 1.1 µM and inactive = higher.
# Key:
# Experiment in all cases: NCI anticancer screen, dose series, 48 h
# [1] = system: SK-MEL-2
# [2] = system: NCI-H460
# [3] = system: IGROV-1
# [4] = system: SK-MEL-28
# [5] = system: HT-29
# [6] = system: COLO 205
# [7] = system: LOX IMVI
# [8] = system: SW-620
# [9] = system: HCT-15
# [10] = system: SNB-75
# [11] = system: DU-145
# [12] = system: Malme-3M
# [13] = system: K562
# [14] = system: 786-0
# [15] = system: HL-60
# [16] = system: MCF7
# [17] = system: SN12C
# [18] = system: NCI-H226
# [19] = system: SR
# [20] = system: BT-549
Structure (SMILES),GI50 [1],GI50 [2],GI50 [3],GI50 [4],GI50 [5],GI50 [6],GI50 [7],GI50 [8],GI50 [9] [µM],GI50 [10],GI50 [11],GI50 [12],GI50 [13],GI50 [14],GI50 [15],GI50 [16],GI50 [17],GI50 [18],GI50 [19],GI50 [20]
CC(C)Cn1cnc2c(Sc3c([N+](=O)[O-])ncn3C)nc(N)nc21,22 µM (inactive),> 63 µM (inactive),> 47.5 µM (inactive),> 60.7 µM (inactive),> 100 µM (inactive),> 25.6 µM (inactive),> 59.8 µM (inactive),> 61.5 µM (inactive),> 59.8,> 59.8 µM (inactive),28.5 µM (inactive),30.8 µM (inactive),> 47.3 µM (inactive),> 61 µM (inactive),30.3 µM (inactive),27.6 µM (inactive),> 64.6 µM (inactive),> 100 µM (inactive),38.7 µM (inactive),42.5 µM (inactive)
O=C1C(c2c(O)[nH]c3ccccc23)=Nc2ccc(Br)cc21,29.8 µM (inactive),70 µM (inactive),3.37 µM (inactive),> 100 µM (inactive),23.9 µM (inactive),> 100 µM (inactive),51.8 µM (inactive),39.6 µM (inactive),76.2,14.6 µM (inactive),8.11 µM (inactive),> 100 µM (inactive),27.2 µM (inactive),9.62 µM (inactive),23.7 µM (inactive),1.24 µM (inactive),77.1 µM (inactive),18.5 µM (inactive),26.5 µM (inactive),28.2 µM (inactive)
CCNCCC1(CC)C(=O)NC(=O)NC1=O,> 100 µM (inactive),> 100 µM (inactive),> 100 µM (inactive),> 100 µM (inactive),> 100 µM (inactive),> 100 µM (inactive),> 100 µM (inactive),> 100 µM (inactive),> 100,> 100 µM (inactive),> 100 µM (inactive),> 100 µM (inactive),> 100 µM (inactive),> 100 µM (inactive),0.0288 µM (active),> 100 µM (inactive),> 100 µM (inactive),> 100 µM (inactive),> 100 µM (inactive),> 100 µM (inactive)
O=C1CSC(c2cccc(Oc3ccccc3)c2)N1c1ccc(Cl)cc1 (stereo unspecified),18.5 µM (inactive),17.1 µM (inactive),,41.2 µM (inactive),37.8 µM (inactive),18.5 µM (inactive),18 µM (inactive),33.6 µM (inactive),26.4,28 µM (inactive),52.2 µM (inactive),20.4 µM (inactive),15.7 µM (inactive),31.8 µM (inactive),24.9 µM (inactive),15.3 µM (inactive),41.3 µM (inactive),32.8 µM (inactive),14 µM (inactive),27.7 µM (inactive)
N#Cc1cc2c(cc1Cl)Sc1nnc(Nc3ccccc3)n1S2(=O)=O,2.55 µM (inactive),2.71 µM (inactive),2.2 µM (inactive),2.26 µM (inactive),2.12 µM (inactive),2.18 µM (inactive),1.73 µM (inactive),1.52 µM (inactive),2.08,3.4 µM (inactive),2.01 µM (inactive),2.19 µM (inactive),1.44 µM (inactive),2.32 µM (inactive),3.05 µM (inactive),8.39 µM (inactive),1.71 µM (inactive),2.24 µM (inactive),0.15 µM (active),2.47 µM (inactive)
ClCCCCCc1c2nc(c(CCCCCCl)c3ccc([nH]3)c(CCCCCCl)c3nc(c(CCCCCCl)c4ccc1[nH]4)C=C3)C=C2,> 100 µM (inactive),> 100 µM (inactive),> 100 µM (inactive),> 100 µM (inactive),> 100 µM (inactive),> 100 µM (inactive),> 100 µM (inactive),> 100 µM (inactive),> 100,83.4 µM (inactive),1 µM (active),> 100 µM (inactive),> 100 µM (inactive),> 100 µM (inactive),> 100 µM (inactive),> 100 µM (inactive),> 100 µM (inactive),> 100 µM (inactive),> 100 µM (inactive),> 100 µM (inactive)
Cc1cc(CS(=O)(=O)/C=C/c2ccccc2[N+](=O)[O-])c(CS(=O)(=O)/C=C/c2ccccc2[N+](=O)[O-])cc1C,15.4 µM (inactive),33.8 µM (inactive),30.8 µM (inactive),68.7 µM (inactive),> 61.7 µM (inactive),> 100 µM (inactive),24.3 µM (inactive),> 54.2 µM (inactive),> 33,5.27 µM (inactive),56.2 µM (inactive),28 µM (inactive),35.3 µM (inactive),12.5 µM (inactive),> 79.4 µM (inactive),8.13 µM (inactive),52.6 µM (inactive),19 µM (inactive),13.7 µM (inactive),7.41 µM (inactive)
Cc1cc([C@H](C#N)c2nc3ccccc3[nH]2)nc(Cl)n1,26.5 µM (inactive),24.5 µM (inactive),54.5 µM (inactive),39.1 µM (inactive),41.7 µM (inactive),42.1 µM (inactive),38.8 µM (inactive),24.2 µM (inactive),25.8,31 µM (inactive),30.6 µM (inactive),77.3 µM (inactive),> 100 µM (inactive),54.5 µM (inactive),19.2 µM (inactive),41.8 µM (inactive),51.2 µM (inactive),48 µM (inactive),54.8 µM (inactive),53.6 µM (inactive)
COc1cc(C2c3cc(O)c(OC)cc3C3OCC2C3CO)ccc1O (stereo unspecified),> 100 µM (inactive),> 100 µM (inactive),,> 100 µM (inactive),> 100 µM (inactive),> 100 µM (inactive),> 100 µM (inactive),> 100 µM (inactive),> 100,> 100 µM (inactive),> 100 µM (inactive),> 100 µM (inactive),> 100 µM (inactive),> 100 µM (inactive),> 100 µM (inactive),> 100 µM (inactive),,> 100 µM (inactive),> 100 µM (inactive),> 100 µM (inactive)
CC(C)OP(=O)(OC(C)C)C(Nc1cccc(C(F)(F)F)c1)c1ccccc1 (stereo unspecified),50.7 µM (inactive),24 µM (inactive),79.4 µM (inactive),93.5 µM (inactive),21.6 µM (inactive),25.5 µM (inactive),39.4 µM (inactive),> 10 µM (inactive),55.5,> 100 µM (inactive),77.6 µM (inactive),32.3 µM (inactive),23.4 µM (inactive),70.3 µM (inactive),14.7 µM (inactive),46.9 µM (inactive),37.7 µM (inactive),60 µM (inactive),21.9 µM (inactive),17.7 µM (inactive)
CNCCCn1c2ccccc2c2c3c(c(-c4ccsc4)cc21)C(=O)NC3=O,0.0181 µM (active),1.35 µM (inactive),1.09 µM (active),1.78 µM (inactive),0.824 µM (active),1.39 µM (inactive),1.33 µM (inactive),1.36 µM (inactive),1.51,1.91 µM (inactive),0.179 µM (active),0.163 µM (active),2.81 µM (inactive),0.259 µM (active),2.22 µM (inactive),0.0984 µM (active),1.29 µM (inactive),2.37 µM (inactive),< 0.01 µM (active),2.1 µM (inactive)
COC(=O)c1ccccc1NCc1cc(O)ccc1O,22.3 µM (inactive),30.1 µM (inactive),25.9 µM (inactive),19.1 µM (inactive),21.8 µM (inactive),19.4 µM (inactive),17.1 µM (inactive),24.2 µM (inactive),18.8,28.8 µM (inactive),50.8 µM (inactive),21.4 µM (inactive),19.6 µM (inactive),17.7 µM (inactive),8 µM (inactive),17.6 µM (inactive),18.6 µM (inactive),18 µM (inactive),> 10 µM (inactive),2.71 µM (inactive)
COc1ccc2c(c1)[nH]c1c(/C=C/c3ccccc3)nccc12,16.2 µM (inactive),13.2 µM (inactive),14.7 µM (inactive),14.9 µM (inactive),10 µM (inactive),3.83 µM (inactive),18.7 µM (inactive),15.9 µM (inactive),11.5,12.3 µM (inactive),20.5 µM (inactive),15.9 µM (inactive),15.9 µM (inactive),15.1 µM (inactive),19.1 µM (inactive),16 µM (inactive),14.2 µM (inactive),17.4 µM (inactive),3.47 µM (inactive),12.8 µM (inactive)
CCOC(=O)Nc1cc2c(c(N)n1)N=C(c1ccc(Cl)cc1Cl)CN2,< 0.01 µM (active),< 0.0154 µM (active),0.292 µM (active),,< 0.0181 µM (active),0.0425 µM (active),< 0.0195 µM (active),< 0.0194 µM (active),< 0.0229,< 0.01 µM (active),< 0.0191 µM (active),< 0.0178 µM (active),< 0.01 µM (active),< 0.0217 µM (active),0.0132 µM (active),0.132 µM (active),0.0805 µM (active),0.0314 µM (active),< 0.01 µM (active),0.791 µM (active)
